The values below come from US5332733A, “Heterocyclically substituted piperazinoakylbenzoxazine and piperazinoalkylbenzothiazine compounds, processes for preparing them, and medicaments containing them” (Kali-Chemie Pharma GmbH, priority 1990, dated 1994).

The target of one experiment is T1, cyclooxygenase (Mus musculus, UniProt P22437).
T1 construct: A cell suspension containing peritoneal cells from male mice 8-10 weeks old was obtained in a known manner; endogenous in cells; host or cells: mouse peritoneal macrophages (primary, adherent)
T1 sequence (P22437 27-602): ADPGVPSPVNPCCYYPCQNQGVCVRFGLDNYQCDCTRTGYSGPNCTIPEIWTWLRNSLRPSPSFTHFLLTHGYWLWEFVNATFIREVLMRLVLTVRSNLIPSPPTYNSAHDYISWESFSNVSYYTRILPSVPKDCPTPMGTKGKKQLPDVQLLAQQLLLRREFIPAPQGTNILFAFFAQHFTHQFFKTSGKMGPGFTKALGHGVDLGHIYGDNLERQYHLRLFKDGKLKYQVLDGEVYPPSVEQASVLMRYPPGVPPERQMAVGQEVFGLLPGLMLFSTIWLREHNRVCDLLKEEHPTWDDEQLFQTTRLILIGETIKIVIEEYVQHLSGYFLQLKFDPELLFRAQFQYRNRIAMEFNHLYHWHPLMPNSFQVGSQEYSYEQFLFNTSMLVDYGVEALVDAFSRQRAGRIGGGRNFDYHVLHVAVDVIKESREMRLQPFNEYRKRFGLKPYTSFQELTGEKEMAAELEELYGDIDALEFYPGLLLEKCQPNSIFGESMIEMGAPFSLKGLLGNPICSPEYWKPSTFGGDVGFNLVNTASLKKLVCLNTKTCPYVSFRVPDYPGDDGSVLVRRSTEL
Put plainly: In vitro cyclooxygenase inhibition, release of 6-keto-PGF1α from zymosan-stimulated peritoneal macrophages. It is filed as cell-based. Particulars: zymosan-stimulated mouse peritoneal macrophage cells, 10^-5 mole/l. The text has this:
(§1) 5. In Vitro Determination of Cyclooxygenase Inhibition And 5-lipoxygenase Inhibition.
(§2) After a cell is activated, arachidonic acid contained in cell membranes is metabolized in two ways. Leucotrienes, inter alia leucotriene C4, are formed due to the action of the enzyme 5-lipoxygenase (=5-LO), and prostanoids are formed due to the action of the enzyme cyclooxygenase (=CO). In in vitro systems these metabolites are secreted from the cell.
(§3) To evaluate the cyclooxygenase-inhibiting and 5-lipoxygenase-inhibiting properties of the test substances, their inhibitory activity on the biosynthesis of the arachidonic acid derivatives leucotriene C4 (=LTC4) and 6-keto-prostaglandin F1α (=6-keto-PGF1α) was determined in vitro on mouse peritoneal macrophage cells. For this purpose the LTC4 and 6-keto-PGF1α contents of a mouse peritoneal macrophage cell culture medium were determined by zymosan stimulation as described by Scott et al. (J. Exp. Med. 152 (1980), 324-335) and by Fradin et al., (Prostaglandins, 33 (1987), 579-589).
(§4) A cell suspension containing peritoneal cells from male mice 8-10 weeks old was obtained in a known manner. A solution marketed under the designation RPMI 1640 (Manufactured by Gibco) was used as the cell culture medium, to which heparin (10 international units/ml) and antibiotics were added according to the procedure of Bonney et al. (Biochem. J. 176 (1978) 422-433). The cell suspension was adjusted to a cell concentration of 10^6 cells per ml and distributed uniformly on titer dishes containing 24 1-ml titer cells (wells). These were kept for two hours in a humidified incubator filled with air enriched with 7% CO2. Cells not adhering to the titer well walls were then removed by washing. The remaining macrophage cells adhering to the walls were incubated for about 12 hours in a suspension medium to which 0.1% of bovine serum albumin (BSA=Bovine Serum Albumin) was added. The suspension medium was then replaced by a Hanks salt solution (=Hanks Balanced Salt Solution=HBSS) with 10 mmoles of HEPES (=hydroxyethylpiperazinoethanesulfonic acid) to which a 0.1% strength solution of the test substances in aqueous, 1% strength dimethylformamide or only the solvent had been added. After 15 minutes the arachidonic acid metabolism was stimulated by adding […] of zymosan (=glycoprotein mixture isolated from cell walls of beer yeast, Saccharomyces cerevisiae, Manufactured by Sigma Chemical Co., Munich) per titre cell. After 2 hours samples of the respective supernatant liquid in each cell were examined for their 6-keto-PGF1α and LTC4 contents by an enzyme immunoassay (=EIA). This EIA is carried out following the method of Pradelles et al. (Analytical Chem. 57 (1985), 1170-1173). The determination of LTC4 and the determination of 6-keto-PGF1α were each carried out on suitable dilutions of the samples (1:50 to 1:250 for the LTC4 determination and 1:250 to 1:1,250 for the 6-keto-PGF1α determination) in comparison with a comparative scale. To determine the inhibiting effect of a 10^-5 molar concentration of the compounds, the amounts of reference eicosanoid were determined, and the inhibiting effect was calculated therefrom in % inhibition compared to the measurements of the zymosan controls.

A further experiment concerns the target T2, 5-lipoxygenase (Mus musculus, UniProt P48999).
T2 construct: A cell suspension containing peritoneal cells from male mice 8-10 weeks old was obtained in a known manner; endogenous in cells; host or cells: mouse peritoneal macrophages (primary, adherent)
T2 sequence (P48999 1-674): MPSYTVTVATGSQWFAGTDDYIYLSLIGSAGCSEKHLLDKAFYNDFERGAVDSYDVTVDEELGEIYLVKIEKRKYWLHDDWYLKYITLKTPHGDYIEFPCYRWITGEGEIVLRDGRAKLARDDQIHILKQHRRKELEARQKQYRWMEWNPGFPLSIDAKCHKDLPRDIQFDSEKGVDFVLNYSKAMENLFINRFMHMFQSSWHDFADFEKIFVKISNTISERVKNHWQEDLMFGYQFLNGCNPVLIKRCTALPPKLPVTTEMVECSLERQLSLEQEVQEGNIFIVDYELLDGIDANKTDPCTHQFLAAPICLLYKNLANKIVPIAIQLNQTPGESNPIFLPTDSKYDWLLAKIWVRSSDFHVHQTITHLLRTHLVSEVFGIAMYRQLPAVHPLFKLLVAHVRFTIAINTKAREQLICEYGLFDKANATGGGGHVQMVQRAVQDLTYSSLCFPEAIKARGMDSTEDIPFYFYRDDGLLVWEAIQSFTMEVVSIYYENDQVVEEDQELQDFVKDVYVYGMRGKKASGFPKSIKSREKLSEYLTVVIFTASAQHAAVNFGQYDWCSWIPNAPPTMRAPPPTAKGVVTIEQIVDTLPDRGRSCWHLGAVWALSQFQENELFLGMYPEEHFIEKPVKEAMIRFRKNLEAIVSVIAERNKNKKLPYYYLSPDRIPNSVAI
Put plainly: In vitro 5-lipoxygenase inhibition, release of LTC4 from zymosan-stimulated peritoneal macrophages. In kind it is cell-based. As to conditions: zymosan-stimulated mouse peritoneal macrophage cells, 10^-5 mole/l.
Text: as §1, §2, §3, §4

With `Cc1ccnc(N2CCN(C3Sc4ccccc4NC3=O)CC2)c1` (centres unmarked) [Example 5, 2-[4-(4-methylpyridin-2-yl)-piperazin-1-yl]-2H-1,4-benzothiazine-3(4H)-one], the “% inhibition upon release of 6-keto-PGF1α” value on cyclooxygenase is listed as 36%. Besides, the “% inhibition upon release of LTC4” value on 5-lipoxygenase was 72%.
